Patent publication US4251628A, “Substrates for angiotensin converting enzyme” (priority 1978, dated 1981)
Where two headings read alike, the source gives them in different places. Ends that are not written are not given here. Peptide text beside a SMILES is read from it.

Key:
[1] = biological target: T1, angiotensin converting enzyme (ACE) (Homo sapiens, UniProt P12821); experiment: Hydrolysis of ^3H-BenzoylProPheArg by normal human serum: effect of various compounds; assay type: biochemical; settings: ^3H-BenzoylProPheArg substrate
T1 construct: Serum was prepared from fresh whole blood by standard techniques; from tissue; host or cells: serum (unfractionated)
T1 sequence (P12821 30-1232 limits assumed): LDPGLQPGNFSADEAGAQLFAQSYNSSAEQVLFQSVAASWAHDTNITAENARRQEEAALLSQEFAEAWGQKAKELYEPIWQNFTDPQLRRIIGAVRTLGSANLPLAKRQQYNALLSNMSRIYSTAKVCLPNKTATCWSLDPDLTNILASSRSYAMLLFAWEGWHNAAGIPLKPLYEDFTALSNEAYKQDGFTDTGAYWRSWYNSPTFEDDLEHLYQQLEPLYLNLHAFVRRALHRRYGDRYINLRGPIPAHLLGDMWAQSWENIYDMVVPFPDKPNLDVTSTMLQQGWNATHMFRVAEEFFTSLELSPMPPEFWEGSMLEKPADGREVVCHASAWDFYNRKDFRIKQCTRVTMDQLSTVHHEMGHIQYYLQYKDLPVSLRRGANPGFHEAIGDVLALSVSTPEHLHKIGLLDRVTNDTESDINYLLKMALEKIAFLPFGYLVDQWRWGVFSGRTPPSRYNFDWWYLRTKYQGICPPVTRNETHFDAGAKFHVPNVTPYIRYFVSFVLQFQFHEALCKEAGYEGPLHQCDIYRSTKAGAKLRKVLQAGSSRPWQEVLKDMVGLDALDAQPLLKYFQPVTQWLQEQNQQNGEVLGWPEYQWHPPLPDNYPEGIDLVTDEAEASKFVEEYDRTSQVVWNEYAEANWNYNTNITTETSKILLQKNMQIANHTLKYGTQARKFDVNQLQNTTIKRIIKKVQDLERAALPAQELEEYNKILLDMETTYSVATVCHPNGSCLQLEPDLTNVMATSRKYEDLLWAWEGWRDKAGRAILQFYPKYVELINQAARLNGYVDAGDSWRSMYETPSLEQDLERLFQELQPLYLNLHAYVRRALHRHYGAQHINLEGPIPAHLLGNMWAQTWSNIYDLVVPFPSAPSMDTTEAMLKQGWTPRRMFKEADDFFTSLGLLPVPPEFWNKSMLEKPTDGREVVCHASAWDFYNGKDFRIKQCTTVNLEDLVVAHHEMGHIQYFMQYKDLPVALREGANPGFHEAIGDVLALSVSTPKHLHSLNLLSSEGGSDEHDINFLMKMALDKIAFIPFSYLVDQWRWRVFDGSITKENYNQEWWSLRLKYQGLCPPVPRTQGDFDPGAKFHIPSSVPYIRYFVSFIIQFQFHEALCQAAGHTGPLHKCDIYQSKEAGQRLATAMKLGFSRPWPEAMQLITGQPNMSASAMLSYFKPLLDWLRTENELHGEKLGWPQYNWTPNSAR
Protocol: Hydrolysis of […] ^3 H-BenzoylProPheArg using the standard reaction procedure of Example 1 with normal human serum as the ACE source was measured in the absence and in the presence of competing substrates and an inhibitor.

[2] = biological target: T2, serum angiotensin converting enzyme (ACE) (Homo sapiens, UniProt P12821); experiment: biochemical; assay type: biochemical; settings: for ACE Activity as % of control: 60 min; for Mode of inhibition (in words): ACE catalyzed hydrolysis of ^3H-HipGlyGly
T2 construct: the activity observed with the present assay method in human serum is identical to ACE; from tissue; host or cells: human serum (unfractionated)
T2 sequence (P12821 30-1232 limits assumed): as above
Protocol: The reaction buffer contains 0.05 M Hepes, 0.1 M sodium chloride and 0.6 M sodium sulphate at pH 8.0. (Pepes is N-2-Hydroxyethyl piperazine N'-2-ethane sulfonic acid.) The substrate, ^3 H-HipGlyGly was dissolved in reaction buffer at a concentration of 16 mM and a specific radioactivity of about 0.15 millicuries/millimole. Serum was prepared from fresh whole blood by standard techniques. […] Hemolyzed samples were not used in the assay. […] For the assay, 50 μl. of serum was diluted with 200 μl. of reaction buffer. All the reactions were carried out in glass tubes due to the potentially destructive action of ethyl acetate on plastic.
(§1) The reaction mixture was composed of 50 μl. of diluted serum, an appropriate amount of substrate solution depending on the final substrate concentration desired, and reaction buffer sufficient to give a total reaction volume of 100 μl. All reaction tubes were incubated for 60 minutes at 37° C. Reactions were terminated by the addition of 1.0 ml. of 0.1 N hydrochloric acid. The reaction mixture was then extracted with 1.0 ml. ethyl acetate, by rotary agitation for 4-5 seconds. The phases were separted by centrifugation at 1000×G for ten minutes. A 0.5 ml. sample of the ethyl acetate (upper) layer was removed and tranferred to a scintillation vial containing 10 ml. scintillation fluid. (Riafluor, Trademark, New England Nuclear Corp., Boston, Mass.)
A control determination of background radioactivity was made using 50 μl. of reaction buffer instead of diluted serum in the reaction mixture. The purpose of this control was to determine the number of total counts attributable to background radiation, non-specific release of hippuric acid and the presence of unreacted substrate in the ethyl acetate phase. […] Total radioactivity was determined by counting an amount of substrate equal to that used in the reaction mixture directly in the scintillation counter.
(§2) Reaction velocity, in terms of nanomoles of product formed per minute per ml of serum was calculated according to the following formula: [formula] In this formula, "nmoles" means nanomoles, "min" means minutes, "ml" means milliliters and "cpm" means radioactivity counts per minute. The factor of 2 is a correction for the aliquot size.
In this series of reactions, the procedure described in Ex. 1 was followed except that the substrate concentration was 8 mM throughout and specific inhibitor substances were added at the indicated final concentration. Bradykinin, angiotensin I, BPP5α and EDTA have been described hereinabove. BPP9α (SQ20881) is a nonapeptide from snake venom having the sequence <GluTryProArgProGlnIleProPro.
*Standard assay conditions as described in Example 1 were used.
**ΔCPM = (CPM of compound CPM of Blank)

[3] = Extraction (partition) into ethyl acetate; assay type: physicochemical
Excerpt: (§3) Reaction conditions optimal for carrying out an ACE catalyzed hydrolysis of a substrate of the present invention are the same as have been previously described for substrates known in the prior art. Detailed studies of optimal conditions using HipGlyGly as substrate have been reported by Dorer, et al. The pH optimum is approximately 8.0 although greater than 50% maximal activity is obtained in the pH range 7.0-9.0, in the presence of 1 M NaCl. […] The relationship between the chloride requirement and the ionic strength requirement has not been fully characterized. […] Phosphate is inhibitory. Hepes, bicine and barbital buffers are suitable for use but Hepes is preferred because it provides maximum activity. Preferred conditions of buffer composition, ionic strength, pH and temperature are described in Example 1. […] The pH range for usable enzyme activity is from pH 6.5 to pH 8.7, with a broad plateau of maximal activity ranging from pH 7.2 to pH 8.5. Optimal substrate concentration depends upon the apparent Km, for the substrate compared with the Km's of possible competing substances in the sample. A substrate having a relatively low Km, such as ^3 H-benzoylProPheArg (Km 2×10^-4 M) could be suitably used at a concentration less than its Km. A substrate having a higher Km might better be used at a concentration greater than its Km. […] Because its Km is the lowest of any of the substrates of the present invention, ^3 H-benzoylProPheArg is the most preferred substrate for assays where ACE activity is low and maximum sensitivity is desired. In addition to being less sensitive to competitive inhibition, assays carried out with this substrate are potentially able to measure lower levels of ACE than the other substrates disclosed herein. Additionally, its partition behavior in an aprotic organic solvent is extremely favorable: only about 3% entered ethyl acetate in a preliminary extraction experiment. The remnant product Benzoylproline was about 90% extracted.
The remnant reaction product may be extracted from the reaction mixture by an aprotic organic solvent which affords a reasonably quantitative separation of product from substrate. The use of solvents which may interfere with the counting process is to be avoided. Ethyl acetate is preferred. Approximately 91% of ^3 H-Hippuric acid is extracted into ethyl acetate. Extraction may be carried out by any suitable means familiar to those skilled in the art, such as shaking, agitating, mixing and the like. Separation of the phases is conveniently accomplished by centrifugation. Centrifugation at 1000×G for ten minutes is preferred, either at room temperature or in a refrigerated centrifuge. In some cases, an emulsion will form which can be separated by a longer centrifugation step.
A control determination of background radioactivity was made using 50 μl. of reaction buffer instead of diluted serum in the reaction mixture. The purpose of this control was to determine the number of total counts attributable to background radiation, non-specific release of hippuric acid and the presence of unreacted substrate in the ethyl acetate phase. Less than 7% of the ^3 H-HipGly Gly entered the organic phase. Total radioactivity was determined by counting an amount of substrate equal to that used in the reaction mixture directly in the scintillation counter. […]

[4] = system: angiotensin converting enzyme (ACE); settings: buffer component / additive; cited from earlier work
[5] = biological target: T1, angiotensin converting enzyme (ACE); experiment: ACE assay: hydrolysis of ^3H-HipGlyGly by human serum, Lineweaver-Burke Km; assay type: biochemical; settings: when about 20% or more of the substrate has been hydrolyzed
Protocol: The following sample illustrates the preferred assay method, the sensitivity of the assay and the Km for ^3 H-HipGlyGly. The reaction buffer contains 0.05 M Hepes, 0.1 M sodium chloride and 0.6 M sodium sulphate at pH 8.0. (Pepes is N-2-Hydroxyethyl piperazine N'-2-ethane sulfonic acid.) The substrate, ^3 H-HipGlyGly was dissolved in reaction buffer at a concentration of 16 mM and a specific radioactivity of about 0.15 millicuries/millimole. Serum was prepared from fresh whole blood by standard techniques. […] Hemolyzed samples were not used in the assay. Serum samples could be stored at least for one week at 2° C. to 8° C. or for at least 8 weeks frozen, prior to assaying. For the assay, 50 μl. of serum was diluted with 200 μl. of reaction buffer. All the reactions were carried out in glass tubes due to the potentially destructive action of ethyl acetate on plastic.
as §1
A control determination of background radioactivity was made using 50 μl. of reaction buffer instead of diluted serum in the reaction mixture. The purpose of this control was to determine the number of total counts attributable to background radiation, non-specific release of hippuric acid and the presence of unreacted substrate in the ethyl acetate phase. Less than 7% of the ^3 H-HipGly Gly entered the organic phase. Total radioactivity was determined by counting an amount of substrate equal to that used in the reaction mixture directly in the scintillation counter.
as §2, with “size. In the case where a significant fraction of substrate has been hydrolyzed, and the substrate in one which is more soluble in the organic phase, as for example, ^125 I-HPPGlyGlyGly, a modified formula is used to take account of the decreasing amount of substrate as the reaction progresses: [formula]” for “size.”
Reciprocal values of initial substrate concentration and reaction velocity were calculated and graphed according to the method of Lineweaver and Burke, as shown in FIG. 1. A straight line was obtained, which intercepted the ordinate at a value equal to the reciprocal of the maximum velocity of the enzyme reaction and intercepted the abcissa at a value equal to the negative reciprocal of the apparent Michaelis constant. […] It can be seen that reaction velocities as low as 12 nanomoles of substrate hydrolyzed per minute per ml. of serum can readily be measured.

[6] = system: angiotensin converting enzyme (ACE); experiment: ACE-catalyzed hydrolysis: Km, pH, chloride and buffer dependence; assay type: biochemical
Excerpt: as §3

[7] = 1 h, read-out: ACE Activity as % of control

CC[C@H](C)[C@H](NC(=O)[C@H](CCC(N)=O)NC(=O)[C@@H]1CCCN1C(=O)[C@H](CCCNC(=N)N)NC(=O)[C@@H]1CCCN1C(=O)[C@H](Cc1c[nH]c2ccccc12)NC(=O)[C@@H]1CCC(=O)N1)C(=O)N1CCC[C@H]1C(=O)N1CCC[C@H]1C(=O)O [BPP9α (SQ20881)]
remaining activity at 33 µM ([1]; 3.3 × 10^-5 M, read-out: ACE Activity As % of Control): 28% | Δ CPM (counts per minute) ([2]; 2.8 × 10^-9 M, substrate 8 mM): 2200 counts per minute | Δ CPM (counts per minute) ([2]; 9 × 10^-8 M, substrate 8 mM): 1410 counts per minute | remaining activity at 0.0028 µM [2, 7]: 58% | remaining activity at 0.09 µM [2, 7]: 37%

O=C(O)[C@@H]1CCCN1C(=O)c1ccccc1 [Benzoylproline]
Fraction extracted into ethyl acetate [3]: about 90%

O=C(O)CN(CCN(CC(=O)O)CC(=O)O)CC(=O)O [EDTA, Ethylene diamine tetraacetic acid]
Inhibition of ACE (in words) [4]: potent inhibitor of ACE | remaining activity at 1000 µM ([1]; 1 × 10^-3 M, read-out: ACE Activity As % of Control): 23% | Δ CPM (counts per minute) [2]: 1178 | remaining activity at 900 µM [2, 7]: 31%

NCC(=O)NCC(=O)O [GlyGly] (H-Gly-Gly-OH)
Product inhibition (in words) [5]: Product inhibition has been observed

[3H]c1ccc(C(=O)N2CCC[C@H]2C(=O)N[C@@H](Cc2ccccc2)C(=O)N[C@@H](CCCNC(=N)N)C(=O)O)cc1 [^3 H-BenzoylProPheArg, ^3 H-benzoylprolylphenylalanylarginine]
Km ([6]; ^3H-benzoylProPheArg as substrate): 200 µM | Chloride / ionic strength requirement of the ACE-catalyzed hydrolysis ([6]; by substrate): chloride ions and high total ionic strength do not greatly affect the rate | Fraction extracted into ethyl acetate [3]: about 3%

[3H]c1ccc(C(=O)NCC(=O)O)cc1 [^3 H-Hippuric acid, Hippuric acid (Benzoyl glycine)]
Fraction extracted into ethyl acetate [3]: Approximately 91%

Angiotensin I: decapeptide angiotensin I, having the sequence AspArgValTyrIleHisProPheHisLeu (DRVYIHPFHL; printed: AspArgValTyrIleHisProPheHisLeu)
ACE Activity As % of Control ([1]; 7.1 × 10^-5 M, 71 µM): 27 % of Control | Δ CPM (counts per minute) ([2]; 4.5 × 10^-5 M, substrate 8 mM): 1278 counts per minute | ACE Activity as % of control ([2]; 4.5 × 10^-5 M, substrate 8 mM, 45 µM): 34 % of control | Δ CPM (counts per minute) ([2]; 9 × 10^-6 M, substrate 8 mM): 2557 counts per minute | ACE Activity as % of control ([2]; 9 × 10^-6 M, substrate 8 mM, 9 µM): 67 % of control | Δ CPM (counts per minute) ([2]; 9 × 10^-7 M, substrate 8 mM): 3057 counts per minute | ACE Activity as % of control ([2]; 9 × 10^-7 M, substrate 8 mM, 0.9 µM): 81 % of control | Mode of inhibition (in words) [2]: competitive inhibitors

Phosphate
Inhibition of ACE (in words) [4]: inhibitory

RPPGFSPFR [Bradykinin]
remaining activity at 82 µM ([1]; 8.2 × 10^-5 M, read-out: ACE Activity As % of Control): 21% | Δ CPM (counts per minute) ([2]; 2.7 × 10^-5 M, substrate 8 mM): 1553 counts per minute | Δ CPM (counts per minute) ([2]; 2.7 × 10^-6 M, substrate 8 mM): 3165 counts per minute | Δ CPM (counts per minute) ([2]; 2.7 × 10^-7 M, substrate 8 mM): 3267 counts per minute | remaining activity at 0.27 µM [2, 7]: 86% | remaining activity at 2.7 µM [2, 7]: 83% | remaining activity at 27 µM [2, 7]: 41% | Mode of inhibition (in words) [2]: competitive inhibitors
